Test results from article PMC3397457, “Preclinical Evaluation of Anticancer Efficacy and Pharmacological Properties of FBA-TPQ, a Novel Synthetic Makaluvamine Analog” (Marine Drugs, 2012).
Where two headings read alike, the source gives them in different places.

Assays:
[1] = test system: Mia PaCa-2 cells; test: Annexin V apoptosis assay/flow cytometry, Mia PaCa-2; type: cell-based, human; details: Mia PaCa-2, 1 µM, 48 h
Experimental: The apoptotic cells were detected using a method reported previously. […] In HPAC cells, a 1 µM concentration of FBA-TPQ increased the apoptotic index two-fold higher than that seen in control cells (P < 0.01). […] In the Mia PaCa-2 cells, FBA-TPQ at 1 µM led to a three-fold increase in apoptosis (P < 0.01).
Following a similar protocol as above, cells in early and late stages of apoptosis were detected using an Annexin V-FITC apoptosis detection kit from BioVision (Mountain View, CA, USA), according to the manufacturer’s protocol. For apoptosis experiments, 2–3 × 10^5 cells were exposed to the test compound (0, 0.1, 0.5 and 1.0 µM) and incubated for 48 h prior to analysis. Cells were collected and washed with serum-free media. Cells were then re-suspended in 500 µL of Annexin V binding buffer followed by addition of 5 µL of Annexin V-FITC and 5 µL of propidium iodide (PI). The samples were incubated in the dark for 5 min at room temperature and analyzed with a Becton Dickinson FACSCalibur instrument (Ex = 488 nm; Em = 530 nm). Cells that were positive for Annexin V-FITC alone (early apoptosis) and Annexin V-FITC and PI (late apoptosis) were counted. The apoptotic index was calculated against the untreated control cells.

[2] = test system: Panc-1 cells; test: Cell cycle distribution by flow cytometry, Panc-1; type: cell-based, human; details: Panc-1, 1 µM
Experimental: The effects of FBA-TPQ on cell cycle distribution were analyzed using the previously reported methods; its effects appeared to be cell-line-dependent (Figure 2c). […] The differences in the responses of the different cell lines may be related to their expression of p53.
To determine the effect of FBA-TPQ on the cell cycle, cells (2–3 × 10^5) were exposed to the test compounds (0, 0.1, 0.5 or 1 µM) and incubated for 24 h prior to analysis. Cells were trypsinized, washed with PBS, and fixed in 1.5 mL of 95% ethanol and 0.5 mL of 0.9% saline solution at 4 °C overnight, followed by incubation with RNAse and staining with propidium iodide (Sigma). The DNA content was determined by flow cytometry. The cell cycle distribution was evaluated by comparing with that of the control cells.

[3] = Pharmacokinetics and tissue distribution in BALB/c mice; type: in vivo; details: for Vd: read-out: Vss
Experimental: To assess the disposition of FBA-TPQ in vivo, pharmacokinetic studies in BALB/c were conducted. The results of the mean plasma concentration-time curves of FBA-TPQ, and tissue concentration-time curves of FBA-TPQ, after intravenous or intraperitoneal injection in BALB/c mice are presented in Figure 5. Two-compartmental model (WinNonlin 6.0 Model 7, Pharsight Corporation: Mountain View, CA, USA, 2009) was used to analyze the data obtained following intravenous (iv) and intraperitoneal (ip) administration of the compound.
Female BALB/c (18–20 g) mice were purchased from Harlan Laboratories (Indianapolis, IN). All animals were fed with commercial diet and water ad libitum and were on an alternating 12 h light/dark cycle. The mice were randomly divided into groups of three, and were dosed either intravenously (5 mg/kg) or intraperitoneally (10 mg/kg) with FBA-TPQ in PEG 400: ethanol: saline (57.1%:14.3%:28.6%). Before dosing, and at 5, 15, 30, and 60 min, and 2, 4, 8, and 24 h after dosing, groups of animals (three/time point) were anesthetized, and blood was collected from the retro-orbital sinus into heparinized tubes. Plasma was obtained by centrifuging the blood samples at 14,000 rpm for 15 min. FBA-TPQ was then extracted from plasma and stored at −80 °C until analysis. The brain, heart, kidneys, liver, lungs, and spleen were also collected at the same time points during necropsy, blotted on Whatman No. 1 filter paper, trimmed of extraneous fat and connective tissue, weighed, and homogenized in phosphate-buffered saline. The resulting homogenates were stored at −80 °C until further processing and analysis.
The average FBA-TPQ concentrations in plasma and tissues at each of the time points following intravenous and intraperitoneal administrations were used for pharmacokinetic analyses using a one- or two-compartmental model, respectively. The following pharmacokinetic parameters were estimated using Phoenix WinNonlin 6.0 (Mountain View, CA, USA): area under the concentration-time curve (AUC, h·μg/mL), half-life (T½, h), maximum concentration (Cmax, μg/mL), time of the maximum concentration (Tmax, h), and clearance (CL, mL/h/kg), as applicable. Bioavailability (X) was calculated as X = [AUCip × doseiv]/[AUCiv × doseip].

[4] = female, mouse, brain, ip, 10 mg/kg
[5] = female, mouse, brain, iv, 5 mg/kg
[6] = female, mouse, heart, ip, 10 mg/kg
[7] = female, mouse, heart, iv, 5 mg/kg
[8] = female, mouse, kidneys, ip, 10 mg/kg
[9] = female, mouse, kidneys, iv, 5 mg/kg
[10] = female, mouse, liver, ip, 10 mg/kg
[11] = female, mouse, liver, iv, 5 mg/kg
[12] = female, mouse, lungs, ip, 10 mg/kg
[13] = female, mouse, lungs, iv, 5 mg/kg
[14] = female, mouse, plasma, ip, 10 mg/kg
[15] = female, mouse, plasma, iv, 5 mg/kg
[16] = female, mouse, spleen, ip, 10 mg/kg
[17] = female, mouse, spleen, iv, 5 mg/kg

O=C1C(NCc2ccc(F)cc2)=CC2=NCCc3c[nH]c1c32 [FBA-TPQ, 7-(4-fluorobenzylamino)-1,3,4,8-tetrahydropyrrolo[4,3,2-de]quinolin-8(1H)-one]
increase in apoptosis vs control cells [1]: three-fold | cell cycle arrest [2]: arrest in the S phase | detectability in mouse plasma ([3]; 4 h after iv injection, 5 mg/kg): no longer detectable | Vss ([3]; brain, ip, 10 mg/kg): 4.10 mL/g | AUC [3, 4]: 62.3 ng·h/mL | half-life [3, 4]: 110 min | AUC [3, 5]: 138 ng·h/mL | half-life [3, 5]: 15.1 min | clearance ([3]; female, mouse, brain, iv, 5 mg/kg, read-out: Cl (converted)): 575 mL/min/kg | Vd [3, 5]: 18.7 L/kg | AUC [3, 6]: 2360 ng·h/mL | half-life [3, 6]: 32.5 min | AUC [3, 7]: 2000 ng·h/mL | half-life [3, 7]: 30.1 min | clearance ([3]; female, mouse, heart, iv, 5 mg/kg, read-out: Cl (converted)): 41.2 mL/min/kg | Vd [3, 7]: 1.77 L/kg | AUC [3, 8]: 14700 ng·h/mL | half-life [3, 8]: 94.8 min | AUC [3, 9]: 11500 ng·h/mL | half-life [3, 9]: 15.1 min | clearance ([3]; female, mouse, kidneys, iv, 5 mg/kg, read-out: Cl (converted)): 7.27 mL/min/kg | Vd [3, 9]: 0.491 L/kg | AUC [3, 10]: 1850 ng·h/mL | half-life [3, 10]: 7.62 min | AUC [3, 11]: 949 ng·h/mL | half-life [3, 11]: 30.6 min | clearance ([3]; female, mouse, liver, iv, 5 mg/kg, read-out: Cl (converted)): 78.3 mL/min/kg | Vd [3, 11]: 3.34 L/kg | AUC [3, 12]: 5710 ng·h/mL | half-life [3, 12]: 21.8 min | AUC [3, 13]: 4020 ng·h/mL | half-life [3, 13]: 30.1 min | clearance ([3]; female, mouse, lungs, iv, 5 mg/kg, read-out: Cl (converted)): 20.6 mL/min/kg | Vd [3, 13]: 7.79 L/kg | bioavailability ([3]; female, mouse, plasma, intraperitoneal, based on AUC values, ip 10 mg/kg vs iv 5 mg/kg): 28.9% | AUC [3, 14]: 338 ng·h/mL | half-life [3, 14]: 13.1 min | concentration at 5 min ([3]; female, mouse, plasma, ip, 10 mg/kg, at 5 min): 542 ng/mL | concentration at 2 h ([3]; female, mouse, plasma, ip, 10 mg/kg, at 2 h): 40.2 ng/mL | AUC [3, 15]: 583 ng·h/mL | half-life [3, 15]: 14.9 min | Vd [3, 15]: 18.7 L/kg | clearance ([3]; female, mouse, plasma, single bolus iv dose 5 mg/kg, read-out: clearance rate (converted)): 141 mL/min/kg | AUC [3, 16]: 6500 ng·h/mL | half-life [3, 16]: 104 min | AUC [3, 17]: 2330 ng·h/mL | half-life [3, 17]: 4.86 min | clearance ([3]; female, mouse, spleen, iv, 5 mg/kg, read-out: Cl (converted)): 33 mL/min/kg | Vd [3, 17]: 1.27 L/kg | Cl ([3]; heart, ip, 10 mg/kg): 3.85 L/h/kg | Vss ([3]; heart, ip, 10 mg/kg): 2.19 mL/g | order of highest overall tissue concentrations ([3]; ip, 10 mg/kg): kidneys > spleen > lungs > liver > heart > brain | concentration in plasma ([3]; ip, 10 mg/kg, 4 h after administration): undetectable levels | order of highest overall concentrations in the tissues examined ([3]; iv, 5 mg/kg): kidneys > lungs > heart > spleen > plasma ≈ liver > brain | Cl ([3]; kidneys, ip, 10 mg/kg): 0.823 L/h/kg | Vss ([3]; kidneys, ip, 10 mg/kg): 0.801 mL/g | Cl ([3]; liver, ip, 10 mg/kg): 3.85 L/h/kg | Cl ([3]; lungs, ip, 10 mg/kg): 1.88 L/h/kg | Vss ([3]; lungs, ip, 10 mg/kg): 10.32 mL/g | Cl ([3]; plasma, ip, 10 mg/kg): 19.8 L/h/kg | Vss ([3]; plasma, ip, 10 mg/kg): 21.8 mL/g | Cl ([3]; plasma, iv, 5 mg/kg): 8.46 L/h/kg | Cl ([3]; spleen, ip, 10 mg/kg): 0.932 L/h/kg | Vss ([3]; spleen, ip, 10 mg/kg): 0.78 mL/g
